# “Also recorded” adds a separate entry of the source.
# How the values were obtained:
# [1] = Metabolic half-life in mice blood
# Cathepsin B [2] = biological target: T1, Cathepsin B (Homo sapiens, UniProt P07858); experiment: Cathepsin enzymatic activity with Z-Phe-Arg-NMec substrate; assay type: biochemical; conditions: pH 6.0, FIG. 2
# Source text: Furthermore, Z-Phe-Arg-NMec was used as substrate to analyze the activity of cathepsin under pH 6.0. […] Cathepsin B was highly expressed in the lysosome of the tumor cell. It could degrade type I collagen, activate interstitial procollagenase and type IV procollagenase, and degrade type I, II, III and IV collagen fibers in the stroma, thus anticipating infiltration and metastasis of tumor.
# 4T1 cells [3] = experiment: Tumor growth inhibition in 4T1 breast cancer model in BALB/C mice; assay type: in vivo
# Source text: Test purpose: to investigate the anti-tumor efficacy of Succinyl-AANL-DOX (SEQ ID NO: 2) and EMC-AANL-DOX (SEQ ID NO: 2) in a 4T1 breast cancer treatment model from BALB/C mice.
# Treatment drug: Succinyl-AANL-DOX (SEQ ID NO: 2) and EMC-AANL-DOX (SEQ ID NO: 2) injections, and doxorubicin hydrochloride injection, diluted to corresponding concentrations by physiological saline when testing.
# 1) 4T1 cells were purchased from American type culture collection (ATCC) and identified according the specification provided by ATCC.
# 2) Production of tumor. 10^6 4T1 cells were subcutaneously injected to the back of the BALB/C mice. Mice were randomly grouped after the diameter of the tumor reached about 0.3 cm to 0.4 cm. Then treatment began.
# Succinyl-AANL-DOX (SEQ ID NO: 2), Legubicin and EMC-AANL-DOX (SEQ ID NO: 2) were intraperitoneally injected. The dose of Succinyl-AANL-DOX (SEQ ID NO: 2), Legubicin and EMC-AANL-DOX (SEQ ID NO: 2) were all 28.16 μmol/kg. The dose of doxorubicin hydrochloride was 3.448 μmol/kg. The control group was administered with physiological saline. The drugs were administered twice weekly for three weeks.
# 4) Results and discussion.
# 4T1 cells [4] = experiment: Efficacy in 4T1 tumor metastasis (lung) model in BALB/C mice; assay type: in vivo; conditions: lung, day 27; i.p. daily for 8 days; S1, S2 10 μmol/kg, doxorubicin hydrochloride 3 μmol/kg
# Source text: Test purpose: to investigate the anti-tumor efficacy of S1 and S2 in a tumor metastasis treatment model from BALB/C mice.
# Test drug: S1 and S2 injections, and doxorubicin hydrochloride injection, diluted to corresponding concentrations with physiological saline when testing.
# 1. Animal: BALB/C mice of 6-8 weeks old, all female.
# 1) 4T1 cells were purchased from American type culture collection (ATCC) and identified according the specification provided by ATCC. Cells were cultivated in DMEM culture medium containing 10% fetal bovine serum at 37° C. and 5% CO2. The cells were passaged for every three days and cells within the 15th passage were used.
# 2) Production of tumor metastasis. 10^6 […] were subcutaneously injected to the back of the BALB/C mice. Mice were randomly grouped after the tumor grew to about 1.5 cm. The subcutaneous tumor was removed by surgery and drug treatment began. Mice were killed after anesthesia on day 27. The whole lung was taken out and put into Bouin's solution for staining. The number of the tumor metastasized to lung was counted with anatomical microscope.
# 3) Course of treatment. According to the clinical application of S1 and S2, drugs were intraperitoneally injected. A dose of 10 μmol/kg (<1/10 MTD) was used for the S1 treatment group, 10 μmol/kg (<1/10 MTD) for the S2 treatment group, and 3 μmol/kg (>1/2 MTD) for doxorubicin hydrochloride. The control group was administered with physiological saline. The drugs were administered daily for 8 days.
# MDA-MB231 cells = experiment: Efficacy in MDA-MB231 tumor model in nude mice; assay type: in vivo; conditions: i.p. twice weekly for three weeks, S1, S2 30 mg/kg, doxorubicin hydrochloride 4 mg/kg
# Source text: Test purpose: to investigate the anti-tumor efficacy of S1 and S2 via mouse tumor treatment model.
# Test drug: S1 and S2 injections, and doxorubicin hydrochloride injection, diluted to corresponding concentrations by physiological saline when testing.
# 1. Animal: nude mice of 6-8 weeks old, all female.
# 1) MDA-MB231 cells were purchased from American type culture collection (ATCC) and identified according the specification provided by ATCC.
# 2) Production of tumor. […] Mice were randomly grouped after the diameter of the tumor reached about 0.3 cm to 0.4 cm. Then treatment began.
# According to the clinical application of S1 and S2, drugs were intraperitoneally injected. A dose of 30 mg/kg (<1/2 MTD) was used for the S1 treatment group, 30 mg/kg (<1/2 MTD) for the S2 treatment group, and 4 mg/kg (>1/2 MTD) for doxorubicin hydrochloride. The control group was administered with physiological saline. The drugs were administered twice weekly for three weeks.
# Cathepsin B [5] = biological target: T1, Cathepsin B; experiment: In vitro binding to cathepsin absorbed on a 96-well plate (fluorescence of bound drug); conditions: cathepsin absorbed on 96-well plate, blocked with BSA, FIG. 1
# Source text: The R6 group allows the drug to be able to target cathepsin (Cathepsin B) in the tumor microenvironment and inhibit the activity of cathepsin necessary for tumor growth, development and metastasis. […] The R6 group also allows the drug to have an additional function of targeting tumor, thus the drug has two targeted effects.
# The test method was described as follows. Cathepsin was absorbed on a 96-well plate and blocked with BSA. Succinyl-AANL-DOX (SEQ ID NO: 2), S1 and a mixture of S1 and E-64 (an inhibitor for specific binding of cathepsin) were added to allow them to bind to the cathepsin on the 96-well plate. The unbound drugs were removed and the fluorescence of the bound drug was detected.
# A549 = experiment: Efficacy at different doses in human non-small cell lung cancer A549 model; assay type: in vivo; conditions: FIG. 6
# Source text: In some examples and many other tumor treatment modes of the present invention, efficacies of Succinyl-AANL-DOX (SEQ ID NO: 2) and EMC-AANL-DOX (SEQ ID NO: 2) were also studied and compared according to the same method as described above. […] Thus, EMC-AANL-DOX (SEQ ID NO: 2) could satisfy our requirements on clinical development.
smiles,measurement,setting,value
"COc1cccc2c1C(=O)c1c(O)c3c(c(O)c1C2=O)CC(O)(C(=O)CO)CC3OC1CC(NC(=O)C(CC(C)C)NC(=O)C(CC(N)=O)NC(=O)C(C)NC(=O)C(C)NC(=O)CCCCCN2C(=O)C=CC2=O)C(O)C(C)O1 (stereo not shown) [Example S1, EMC-AANL-Doxorubicin]",Metabolic half-life in the mice blood,[1],above 74 hours
same,Inhibition of enzymatic activity of cathepsin,Cathepsin B [2],could effectively inhibit the enzymatic activity of cathepsin
same,Inhibitory effect on tumor growth (in words),"4T1 cells [3]; 28.16 μmol/kg i.p. twice weekly for three weeks, compared with Succinyl-AANL-DOX, Dox and BOC-AANL-DOX, FIG. 5",could significantly improve the inhibitory effect on tumor growth; also recorded: exhibits a superior inhibitory effect on tumor growth
same,Inhibitory effect on tumor growth relative to Succinyl-AANL-DOX,"4T1 cells [3]; 4T1 breast cancer model, etc.",4-5 folds
same,Inhibitory rate on metastasis,4T1 cells [4],91.6%
same,Number of metastasized tumor,4T1 cells [4],12 ± 4
same,"Inhibitory rate of tumor, 20 days",MDA-MB231 cells; 20 days,25.8%
same,"Size of tumor (mm^3), 20 days","MDA-MB231 cells; 20 days, nude mice",287.42 ± 30.52 mm^3
same,"Inhibitory rate of tumor, 38 days",MDA-MB231 cells; 38 days,68.5%
same,"Size of tumor (mm^3), 38 days","MDA-MB231 cells; 38 days, nude mice",678.49 ± 37.7 mm^3
same,Binding to cathepsin,Cathepsin B [5],bound to the cathepsin; also recorded: can bind cathepsin
same,Binding to cathepsin,Cathepsin B [5]; listed as EMC-AANL-DOX,can efficiently bind to Cathepsin B
same,Effect on tumor in A549 model (in words),A549,"could completely kill the tumor, with no recurrence of tumor in the later stage of the treatment"

# From patent US9982011B2, “Legumain activated doxorubicin derivative as well as preparation method and application thereof” (priority 2012, dated 2018)
